Data on eleven compounds can be found in ChEMBL document CHEMBL1201862, “PubChem BioAssay data set” (2004).

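Values below derive from 48-hour exposures of cells grown in 96-well plates, with endpoints linearly interpolated between the two concentrations bracketing the appropriate inhibition level. The concentration for 50% growth inhibition is given as GI50.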 Calls of active or inactive are those of the source. Rule as the data show it: active = GI50 up to about 1.1 µM and inactive = higher.

Common to all, as to test: DTP human tumour cell line panel, 48 h
The test system of experiment [1] is OVCAR-5.
Experiment [2] has as its system SK-MEL-2.
Experiment [3] concerns 786-0.
The test system of experiment [4] is HCT-15.
Experiment [5] concerns U-251.
Experiment [6] deals with MDA-MB-231.
Experiment [7] concerns KM12.
For experiment [8], the system named is OVCAR-4.
Experiment [9] relates to SK-MEL-28.
Experiment [10] concerns SF-268.
Experiment [11] relates to SN12C.
Experiment [12] concerns UO-31.
Experiment [13] concerns NCI-H522.
Experiment [14] has as its system HOP-92.
In experiment [15] the test system is RPMI-8226.
Experiment [16] concerns TK-10.
Experiment [17] concerns COLO 205.
The subject of experiment [18] is HOP-62.
Experiment [19] concerns CCRF-CEM.
Experiment [20] relates to SK-OV-3.

As to `COc1cc(C2c3cc4c(cc3OC(NN)C2C)OCO4)cc(OC)c1O` (stereo not given), the GI50 was 31.6 µM (inactive) in [1]; 3.3 µM (inactive) in [2]; 11.3 µM (inactive) in experiment [3]; 3.72 µM in experiment [4]; 7.23 µM (inactive) in experiment [5]; 9.2 µM (inactive) in experiment [6]. Further, the GI50 is 6.08 µM (inactive) in experiment [7]; 26.8 µM (inactive) in experiment [8]; 6.75 µM (inactive) in experiment [9]; 28.3 µM (inactive) in experiment [10]; 4.3 µM (inactive) in experiment [11]; 19.8 µM (inactive) in experiment [12]. The GI50 was 5.96 µM (inactive) in experiment [13]; 23.6 µM (inactive) in [14]; 3.95 µM (inactive) in experiment [15]; 26.2 µM (inactive) in experiment [16]; 15.2 µM (inactive) in experiment [17].

As to `O=c1[nH]nc(-c2ccccc2)c2[nH]c3c(c12)CCCc1ccccc1-3`, the GI50 in experiment [18] was 19.3 µM (inactive); in experiment [1], 18.7 µM (inactive); in experiment [3], 14.2 µM (inactive); in experiment [4], 2.34 µM; in experiment [5] it was 11.4 µM (inactive); in experiment [6], 15.9 µM (inactive). The GI50 in experiment [7] was 10.2 µM (inactive); in [8], 12.9 µM (inactive); in [19], 14 µM (inactive); in experiment [10], 24.9 µM (inactive); in [11], 16.6 µM (inactive); in experiment [12], 12.8 µM (inactive). In addition, the GI50 in [20] is 52.2 µM (inactive); in experiment [13], 7.69 µM (inactive); in experiment [14], 13.3 µM (inactive); in experiment [15] it was 11.5 µM (inactive); in [16] it was 19.4 µM (inactive); in [17], 9.79 µM (inactive).

Turning to `CCCCCCCCC/C=C1/CC(CO)(COC(=O)C2CCCCC2)OC1=O` (stereo not given), the GI50 is 63.7 µM (inactive) in [18]; > 100 µM (inactive) in [1]; > 100 µM (inactive) in experiment [2]; > 100 µM (inactive) in experiment [3]; more than 100 µM in experiment [4]; > 100 µM (inactive) in [5]. The GI50 in experiment [6], in [7], in [8], in experiment [9], in experiment [19] and in experiment [10] was > 100 µM (inactive) each time. Also, the GI50 in [11] was > 100 µM (inactive); in [12], > 100 µM (inactive); in [20] it was > 100 µM (inactive); in [13], 63.1 µM (inactive); in experiment [14] it was > 100 µM (inactive); in experiment [16] it was > 100 µM (inactive). For the same compound, in [17], the GI50 is 34 µM (inactive).

Regarding `CN(C)CCCNC(CC#N)CCC#N` (stereo not given), the GI50 in [18] was > 10 µM (inactive); in experiment [1], > 10 µM (inactive); in experiment [2], > 10 µM (inactive); in experiment [3], > 10 µM (inactive); in [4] it was more than 10 µM; in experiment [5], > 10 µM (inactive). The GI50 in experiment [6], in experiment [7], in experiment [8], in experiment [9], in [19] and in experiment [10] was > 10 µM (inactive) throughout. The GI50 in experiment [11], in experiment [12], in experiment [20], in experiment [13], in experiment [14] and in experiment [16] was > 10 µM (inactive) in each case. Moreover, the GI50 in experiment [17] is > 10 µM (inactive).

As to `Cc1cc(N(CCCl)CCCl)ccc1/C=N/NC(=O)Cc1cc(=O)oc2cc(O)ccc12`, the GI50 is 19 µM (inactive) in [18]; 31.6 µM (inactive) in [1]; 32.3 µM (inactive) in experiment [2]; 18.8 µM (inactive) in experiment [3]; 14.4 µM in experiment [4]; 14.2 µM (inactive) in experiment [5]. Moreover, the GI50 in experiment [6] is 30.6 µM (inactive); in experiment [7] it was 16.6 µM (inactive); in experiment [8], 16.6 µM (inactive); in experiment [9], 12.6 µM (inactive); in [19], 6.38 µM (inactive); in [10], 10.2 µM (inactive). The GI50 is 16 µM (inactive) in [11]; 22.9 µM (inactive) in experiment [12]; 13.7 µM (inactive) in experiment [13]; 27 µM (inactive) in [14]; 16 µM (inactive) in [15]; 17.7 µM (inactive) in experiment [17].

Turning to `O=C(O)Cc1cc(O)c(CC(=O)O)cc1O`, the GI50 in [18] was > 100 µM (inactive); in experiment [1], > 100 µM (inactive); in [2], > 100 µM (inactive); in [3], > 100 µM (inactive); in [4] it was more than 100 µM; in experiment [5], > 100 µM (inactive). Besides, the GI50 in experiment [6], in [7], in experiment [8], in experiment [9], in [10] and in [11] was > 100 µM (inactive) throughout. For the same compound, the GI50 in experiment [12], in experiment [13], in experiment [14] and in experiment [16] was > 100 µM (inactive) in each case.

In the case of `OCC(O)COCn1cc(Cn2ncc3c(O)ncnc32)nn1` (stereo not given), the GI50 in experiment [18] is > 100 µM (inactive); in experiment [1], > 100 µM (inactive); in experiment [2], > 100 µM (inactive); in experiment [3], > 100 µM (inactive); in [4], more than 100 µM; in [5] it was > 100 µM (inactive). Further, the GI50 in experiment [6], in [7], in experiment [8], in [9], in experiment [19] and in experiment [11] was > 100 µM (inactive) in each case. The GI50 was > 100 µM (inactive) in experiment [12]; > 100 µM (inactive) in experiment [20]; 28.5 µM (inactive) in experiment [13]; > 100 µM (inactive) in [14]; > 100 µM (inactive) in experiment [15]; > 100 µM (inactive) in experiment [16]. In addition, the GI50 in experiment [17] is > 100 µM (inactive).

Consider `CC(C)CCNC(=O)c1ccc(CNC(=O)/C=C/c2cccc(Oc3ccccc3)c2)cc1`, for which the GI50 in experiment [18] is 18.7 µM (inactive); in experiment [1] it was > 100 µM (inactive); in experiment [2], 31.3 µM (inactive); in [3], 24 µM (inactive); in experiment [4], 38.6 µM; in experiment [5] it was 28.8 µM (inactive). The GI50 is 24.1 µM (inactive) in experiment [6]; 44 µM (inactive) in experiment [7]; 27.7 µM (inactive) in experiment [8]; > 100 µM (inactive) in experiment [9]; 37.3 µM (inactive) in experiment [10]; 43.7 µM (inactive) in experiment [11]. Also, the GI50 in experiment [12] is 45 µM (inactive); in experiment [20] it was 33.1 µM (inactive); in [13], 52.5 µM (inactive); in experiment [14], 53.2 µM (inactive); in experiment [15], 67.9 µM (inactive); in experiment [16], 22.6 µM (inactive). For the same compound, the GI50 in experiment [17] is > 100 µM (inactive).

For `CCCCCCCCCCCCCCCCOCC(COP(=O)([O-])OCC[n+]1ccc(N(C)C)cc1)OCC` (stereo not given), the GI50 in experiment [18] was 12.3 µM (inactive); in [2], 13.4 µM (inactive); in experiment [3], 18 µM (inactive); in [4] it was 18.2 µM; in experiment [5] it was 11.7 µM (inactive); in [6], 8.55 µM (inactive). The GI50 in experiment [7] was 0.0527 µM (active); in experiment [8] it was 15.8 µM (inactive); in experiment [9] it was 17.6 µM (inactive); in [19] it was 10.5 µM (inactive); in [10], 10.8 µM (inactive); in experiment [11], 19.7 µM (inactive). The GI50 is 15.5 µM (inactive) in [12]; 12.8 µM (inactive) in experiment [13]; 17 µM (inactive) in experiment [14]; 4.12 µM (inactive) in experiment [15]; 14.9 µM (inactive) in [16]; 13.6 µM (inactive) in experiment [17].

Turning to `COC1C(=O)CCC2(CO2)C1(O)C1(C)OC1CCC(C)C` (stereo not given), the GI50 was 54.5 µM (inactive) in experiment [18]; > 100 µM (inactive) in [1]; 47.2 µM (inactive) in [3]; 29.4 µM in [4]; 13.5 µM (inactive) in experiment [5]; 15.6 µM (inactive) in [6]. The GI50 was 10.2 µM (inactive) in [7]; > 100 µM (inactive) in experiment [8]; 21.8 µM (inactive) in experiment [9]; 40.4 µM (inactive) in experiment [19]; 78.3 µM (inactive) in [10]; 23.3 µM (inactive) in experiment [11]. Besides, the GI50 was > 100 µM (inactive) in experiment [12]; > 100 µM (inactive) in [20]; > 100 µM (inactive) in [13]; > 100 µM (inactive) in [14]; > 100 µM (inactive) in experiment [15]; 23.9 µM (inactive) in experiment [17].

For `c1ccc(/N=C2\SC(c3ccccc3)CN2C23CC4CC(CC(C4)C2)C3)cc1` (stereo not given), the GI50 in experiment [18] was > 100 µM (inactive); in experiment [1], > 100 µM (inactive); in experiment [2], > 100 µM (inactive); in [3], > 100 µM (inactive); in [4] it was more than 100 µM; in experiment [5], > 100 µM (inactive). Besides, the GI50 in experiment [6], in [7], in [8], in experiment [9], in experiment [19] and in experiment [10] was > 100 µM (inactive) each time. The GI50 in [11], in [12], in experiment [13], in [14], in experiment [15] and in [16] was > 100 µM (inactive) in each case. Besides, the GI50 in experiment [17] was > 100 µM (inactive).

For orientation: GI50 means the concentration giving 50% growth inhibition.
